Data published in PubChem BioAssay (NCI).
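Interpolation was linear, between the two tested concentrations surrounding the appropriate level; five concentrations were tested over 48 hours in 96-well plates. Here, GI50 denotes the concentration required for 50% inhibition of growth. TGI marks complete inhibition of growth.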

Assays:
Test in all cases: inhibition of tumour cell growth, NCI panel, 48 h
NCI-H226 lung = tested on: NCI-H226 lung
HCC-2998 colon = tested on: HCC-2998 colon
HCT-15 colon = tested on: HCT-15 colon
HL-60(TB) leukemia = tested on: HL-60(TB) leukemia
M14 melanoma = tested on: M14 melanoma
SNB-19 CNS = tested on: SNB-19 CNS
HOP-92 NSCLC = tested on: HOP-92 NSCLC
SNB-75 CNS = tested on: SNB-75 CNS
HS 578T breast = tested on: HS 578T breast
U251 CNS = tested on: U251 CNS
UACC-257 melanoma = tested on: UACC-257 melanoma
NCI-H522 lung = tested on: NCI-H522 lung
SF-539 CNS = tested on: SF-539 CNS
HCT-116 colon = tested on: HCT-116 colon
NCI-H23 lung = tested on: NCI-H23 lung
786-0 renal = tested on: 786-0 renal
SF-268 CNS = tested on: SF-268 CNS
EKVX NSCLC = tested on: EKVX NSCLC
TK-10 renal = tested on: TK-10 renal
DU-145 prostate = tested on: DU-145 prostate
MCF7 breast = tested on: MCF7 breast
SF-295 CNS = tested on: SF-295 CNS
ACHN renal = tested on: ACHN renal
BT-549 breast = tested on: BT-549 breast
COLO 205 colon = tested on: COLO 205 colon
OVCAR-8 ovarian = tested on: OVCAR-8 ovarian
T-47D breast = tested on: T-47D breast
SK-MEL-28 melanoma = tested on: SK-MEL-28 melanoma
SK-MEL-2 melanoma = tested on: SK-MEL-2 melanoma
UACC-62 melanoma = tested on: UACC-62 melanoma
RPMI-8226 leukemia = tested on: RPMI-8226 leukemia
HOP-62 NSCLC = tested on: HOP-62 NSCLC
OVCAR-3 ovarian = tested on: OVCAR-3 ovarian
CAKI-1 renal = tested on: CAKI-1 renal
OVCAR-4 ovarian = tested on: OVCAR-4 ovarian
A549 NSCLC = tested on: A549 NSCLC
RXF 393 renal = tested on: RXF 393 renal
LOX IMVI melanoma = tested on: LOX IMVI melanoma
KM12 colon = tested on: KM12 colon
NCI/ADR-RES ovarian = tested on: NCI/ADR-RES ovarian
A498 renal = tested on: A498 renal
MDA-MB-435 = tested on: MDA-MB-435
SN12C renal = tested on: SN12C renal
PC-3 prostate = tested on: PC-3 prostate
SW-620 colon = tested on: SW-620 colon
MALME-3M melanoma = tested on: MALME-3M melanoma
IGROV1 ovarian = tested on: IGROV1 ovarian
K-562 leukemia = tested on: K-562 leukemia
HT29 colon = tested on: HT29 colon
UO-31 renal = tested on: UO-31 renal
OVCAR-5 ovarian = tested on: OVCAR-5 ovarian
NCI-H460 lung = tested on: NCI-H460 lung
SK-MEL-5 melanoma = tested on: SK-MEL-5 melanoma
SK-OV-3 ovarian = tested on: SK-OV-3 ovarian
MOLT-4 leukemia = tested on: MOLT-4 leukemia
MDA-MB-231 breast = tested on: MDA-MB-231 breast
CCRF-CEM leukemia = tested on: CCRF-CEM leukemia

COc1cc2c(cc1OCCCCCOc1cc3c(cc1OC)C(=O)N1CCC[C@H]1C(=O)N3)N=C[C@@H]1CCCN1C2=O
TGI (NCI-H226 lung): 750 nM | TGI (HCC-2998 colon): 20.9 µM | TGI (HCT-15 colon): > 100 µM | TGI (HL-60(TB) leukemia): 1510 nM | TGI (M14 melanoma): 521 nM | TGI (SNB-19 CNS): > 100 µM | TGI (HOP-92 NSCLC): 0.0973 µM | TGI (SNB-75 CNS): 58.8 nM | TGI (HS 578T breast): 4.17 µM | TGI (U251 CNS): 510 nM | TGI (UACC-257 melanoma): 707 nM | TGI (NCI-H522 lung): 41.9 nM | TGI (SF-539 CNS): 56.2 nM | TGI (HCT-116 colon): > 100 µM | TGI (NCI-H23 lung): 1890 nM | TGI (786-0 renal): 4.71 µM | TGI (SF-268 CNS): 10.4 µM | TGI (EKVX NSCLC): 9.54 µM | TGI (TK-10 renal): 253 nM | TGI (DU-145 prostate): > 100 µM | TGI (MCF7 breast): 261 nM | TGI (SF-295 CNS): 5.59 µM | TGI (ACHN renal): 4.05 µM | TGI (BT-549 breast): 6.67 µM | TGI (COLO 205 colon): 50.9 nM | TGI (OVCAR-8 ovarian): 31.5 µM | TGI (T-47D breast): > 100000 nM | TGI (SK-MEL-28 melanoma): 332 nM | TGI (SK-MEL-2 melanoma): 666 nM | TGI (UACC-62 melanoma): 193 nM | TGI (RPMI-8226 leukemia): 179 nM | TGI (HOP-62 NSCLC): 26.3 µM | TGI (OVCAR-3 ovarian): 575 nM | TGI (CAKI-1 renal): 4.25 µM | TGI (OVCAR-4 ovarian): 716 nM | TGI (A549 NSCLC): > 100 µM | TGI (RXF 393 renal): 413 nM | TGI (LOX IMVI melanoma): 997 nM | TGI (KM12 colon): 37.1 µM | TGI (NCI/ADR-RES ovarian): 33.1 µM | TGI (A498 renal): 1100 nM | TGI (MDA-MB-435): 284 nM

Cc1cc([C@@H](C)Nc2ccccc2C(=O)O)c2nc(N3CCOCC3)cc(=O)n2c1
GI50 (NCI-H226 lung): > 10 µM | TGI (NCI-H226 lung): > 10000 nM | GI50 (HCC-2998 colon): > 10 µM | TGI (HCC-2998 colon): > 10 µM | GI50 (HCT-15 colon): > 10 µM | TGI (HCT-15 colon): > 10 µM | GI50 (HL-60(TB) leukemia): 5.5 µM | TGI (HL-60(TB) leukemia): > 10000 nM | GI50 (M14 melanoma): > 10 µM | TGI (M14 melanoma): > 10000 nM | GI50 (SNB-19 CNS): > 10 µM | TGI (SNB-19 CNS): > 10 µM | GI50 (HOP-92 NSCLC): 175 nM | TGI (HOP-92 NSCLC): 6.08 µM | GI50 (SNB-75 CNS): 430 nM | TGI (SNB-75 CNS): > 10000 nM | GI50 (SN12C renal): > 10 µM | TGI (SN12C renal): > 10 µM | GI50 (HS 578T breast): 122 nM | TGI (HS 578T breast): 8.14 µM | GI50 (U251 CNS): > 10 µM | TGI (U251 CNS): > 10000 nM | GI50 (PC-3 prostate): 3.73 µM | TGI (PC-3 prostate): > 10 µM | GI50 (SW-620 colon): > 10 µM | TGI (SW-620 colon): > 10 µM | GI50 (MALME-3M melanoma): > 10 µM | TGI (MALME-3M melanoma): > 10 µM | GI50 (IGROV1 ovarian): 1850 nM | TGI (IGROV1 ovarian): > 10 µM | GI50 (UACC-257 melanoma): > 10 µM | TGI (UACC-257 melanoma): > 10000 nM | GI50 (NCI-H522 lung): > 10 µM | TGI (NCI-H522 lung): > 10000 nM | GI50 (SF-539 CNS): 7.11 µM | TGI (SF-539 CNS): > 10000 nM | GI50 (HCT-116 colon): 2760 nM | TGI (HCT-116 colon): > 10 µM | GI50 (K-562 leukemia): > 10 µM | TGI (K-562 leukemia): > 10 µM | GI50 (HT29 colon): > 10 µM | TGI (HT29 colon): > 10 µM | GI50 (UO-31 renal): 2430 nM | TGI (UO-31 renal): > 10 µM | GI50 (NCI-H23 lung): > 10 µM | TGI (NCI-H23 lung): > 10000 nM | GI50 (786-0 renal): 1230 nM | TGI (786-0 renal): > 10 µM | GI50 (SF-268 CNS): > 10 µM | TGI (SF-268 CNS): > 10 µM | GI50 (EKVX NSCLC): > 10 µM | TGI (EKVX NSCLC): > 10 µM | GI50 (TK-10 renal): > 10 µM | TGI (TK-10 renal): > 10000 nM | GI50 (OVCAR-5 ovarian): > 10 µM | TGI (OVCAR-5 ovarian): > 10 µM | GI50 (DU-145 prostate): > 10 µM | TGI (DU-145 prostate): > 10 µM | GI50 (MCF7 breast): 3.36 µM | TGI (MCF7 breast): > 10000 nM | GI50 (SF-295 CNS): 1850 nM | TGI (SF-295 CNS): > 10 µM | GI50 (NCI-H460 lung): > 10 µM | TGI (NCI-H460 lung): > 10 µM | GI50 (ACHN renal): > 10 µM | TGI (ACHN renal): > 10 µM | GI50 (SK-MEL-5 melanoma): > 10 µM | TGI (SK-MEL-5 melanoma): > 10 µM | GI50 (BT-549 breast): 1170 nM | TGI (BT-549 breast): > 10 µM | GI50 (COLO 205 colon): > 10 µM | TGI (COLO 205 colon): > 10000 nM | GI50 (OVCAR-8 ovarian): > 10 µM | TGI (OVCAR-8 ovarian): > 10 µM | GI50 (T-47D breast): 207 nM | TGI (T-47D breast): 1940 nM | GI50 (SK-MEL-28 melanoma): > 10 µM | TGI (SK-MEL-28 melanoma): > 10000 nM | GI50 (SK-MEL-2 melanoma): > 10 µM | TGI (SK-MEL-2 melanoma): > 10000 nM | GI50 (UACC-62 melanoma): 627 nM | TGI (UACC-62 melanoma): > 10000 nM | GI50 (RPMI-8226 leukemia): > 10 µM | TGI (RPMI-8226 leukemia): > 10000 nM | GI50 (HOP-62 NSCLC): > 10 µM | TGI (HOP-62 NSCLC): > 10 µM | GI50 (SK-OV-3 ovarian): 1080 nM | TGI (SK-OV-3 ovarian): > 10 µM | GI50 (OVCAR-3 ovarian): 6.02 µM | TGI (OVCAR-3 ovarian): > 10000 nM | GI50 (CAKI-1 renal): 6.28 µM | TGI (CAKI-1 renal): > 10 µM | GI50 (OVCAR-4 ovarian): > 10 µM | TGI (OVCAR-4 ovarian): > 10000 nM | GI50 (A549 NSCLC): > 10 µM | TGI (A549 NSCLC): > 10 µM | GI50 (RXF 393 renal): 56.4 nM | TGI (RXF 393 renal): 1330 nM | GI50 (MOLT-4 leukemia): 5.42 µM | TGI (MOLT-4 leukemia): > 10 µM | GI50 (LOX IMVI melanoma): 6.73 µM | TGI (LOX IMVI melanoma): > 10000 nM | GI50 (KM12 colon): > 10 µM | TGI (KM12 colon): > 10 µM | GI50 (NCI/ADR-RES ovarian): > 10 µM | TGI (NCI/ADR-RES ovarian): > 10 µM | GI50 (A498 renal): 16.6 nM | TGI (A498 renal): 94.5 nM | GI50 (MDA-MB-231 breast): > 10 µM | TGI (MDA-MB-231 breast): > 10 µM | GI50 (MDA-MB-435): > 10 µM | TGI (MDA-MB-435): > 10000 nM | GI50 (CCRF-CEM leukemia): > 10 µM | TGI (CCRF-CEM leukemia): > 10 µM
